# From patent US20080261286A1, “Methods for producing optically active alpha-hydroxy amides” (Daicel Chemical Industries, Ltd., priority 2004, published 2008)
# B1: α-ketoamide reductase: NADPH-dependent α-ketoamide reductase purified from baker's yeast, encoded by YDL124w (SEQ ID NO: 2) (protein, listed as Saccharomyces cerevisiae)
# chain: MSFHQQFFTLNNGNKIPAIAIIGTGTRWYKNEETDATFSNSLVEQIVYALKLPGIIHIDAAEIYRTYPEVGKALSLTEKPRNAIFLTDKYSPQIKMSDSPADGLDLALKKMGTDYVDLYLLHSPFVSKEVNGLSLEEAWKDMEQLYKSGKAKNIGVSNFAVEDLQRILKVAEVKPQVNQIEFSPFLQNQTPGIYKFCQEHDILVEAYSPLGPLQKKTAQDDSQPFFEYVKELSEKYIKSEAQIILRWVTKRGVLPVTTSSKPQRISDAQNLFSFDLTAEEVDKITELGLEHEPLRLYWNKLYGKYNYAAQKV
# Target: T1, α-ketoamide reductase (Saccharomyces cerevisiae, UniProt Q07551)
# T1 construct: 500 g of live baker's yeast was purchased from Oriental yeast and the fungal cells were used to purify the enzyme; tissue Oriental Yeast; host or cells: live baker's yeast cells; enzyme purified to a single SDS-PAGE band
# T1 sequence (Q07551 1-312): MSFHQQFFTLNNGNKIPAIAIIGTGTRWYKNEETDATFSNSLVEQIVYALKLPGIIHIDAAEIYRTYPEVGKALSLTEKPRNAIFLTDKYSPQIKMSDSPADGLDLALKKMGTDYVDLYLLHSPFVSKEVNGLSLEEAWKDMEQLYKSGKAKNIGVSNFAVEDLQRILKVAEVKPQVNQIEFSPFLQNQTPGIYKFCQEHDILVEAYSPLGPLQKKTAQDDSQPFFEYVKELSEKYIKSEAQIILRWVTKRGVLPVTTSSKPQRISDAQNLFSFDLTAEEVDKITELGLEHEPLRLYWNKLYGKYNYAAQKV
# Test: Substrate specificity of α-ketoamide reductase (relative reducing activity)
# Format: biochemical
# Conditions: activity of reducing 2-chlorobenzoyl formamide taken as 100, substrate concentration 1 mM
# Description: (§1) The enzyme is incubated in a reaction solution containing 100 mM potassium phosphate buffer (pH 6.5), 0.2 mM NADPH, and 1 mM 2-chlorobenzoyl formamide at 30° C. Adecrease in NADPH concentration is assessed by the decrease in absorbance at 340 nm. 1 U is defined as the amount of enzyme required to catalyze the decrease of 1 μmol NADPH in one minute.
# The enzyme obtained in Example 1 was incubated with any one of various α-ketoamides, α-ketoesters, β-ketoesters, aldehydes, ketones, and others. The reducing activity is represented as a relative activity when the activity of reducing 2-chlorobenzoyl formamide is taken as 100.
row,Molecule,Reducing activity (%)
1,NC(=O)C(=O)c1cccc(Cl)c1,143
2,NC(=O)C(=O)c1ccc(Cl)cc1,71
3,NC(=O)C(=O)c1ccccc1,59
4,CCCCC(=O)C(=O)OCC,49
5,CC(C)C(=O)C(=O)O,0
6,CCOC(=O)CC(=O)CCl,4
7,CCOC(=O)CC(=O)c1ccccc1,0
8,CCOC(=O)C(C)C(C)=O (centres unmarked),0
9,CCOC(=O)C(Cl)C(C)=O (centres unmarked),0
10,C=CCC(C(C)=O)C(=O)OCC (centres unmarked),0
11,O=CC(=O)c1ccccc1,120
12,O=C1CCCCC1=O,10
13,CC1(C)COC(=O)C1=O,19
14,CC(=O)c1ccccc1,0
15,O=C(CCl)c1ccccc1,0
16,CC(=O)COC(C)=O,0
17,COCC(C)=O,0
18,NC(=O)C(=O)c1ccccc1Cl [2-chlorobenzoyl formamide],100
19,CCOC(=O)C(=O)c1ccccc1 [drawing 5],32
20,CCOC(=O)C(C)=O [drawing 6],9
21,CCOC(=O)C(=O)CC [drawing 7],33
22,CCCC(=O)C(=O)OCC [drawing 8],46
23,CCCCCC(=O)C(=O)OCC [drawing 10],50
24,CCOC(=O)C(=O)C(C)C [drawing 11],71

# Target: T1, α-ketoamide reductase
# Test: Stereoselectivity of α-ketoamide reductase (optical purity of reduction product)
# Format: biochemical
# Conditions: product of reduction; 0.2 U purified enzyme, 10 μmol substrate, 10 μmol NADPH, pH 7.0, 37° C., 6 hours
# Description: 0.2 U of the purified enzyme and each of various α-ketoamides and α-ketoesters (10 μmol each) were incubated in 0.5 ml of 0.1 M potassium phosphate buffer (pH 7.0) in the presence of 10 μmol NADPH at 37° C. for 6 hours. The resulting α-hydroxy amides and α-hydroxyesters were extracted with ether, and then the optical purity of each compound was determined.
# The optical purity was determined by the procedure described below.
# The optical purity of 2-chloromandelamide was determined by chiral HPLC method or chiral GC method. The chiral HPLC method comprises chromatography using CHIRALPAK AS-H (DAICEL CHEMICAL INDUSTRIES, LTD.). The elution was carried out using a mixed solution of n-hexane and ethanol (85:15) at a flow rate 1.0 mL/min and a column temperature of 25° C. The elution peak for the compound was detected by UV absorbance at 254 nm. Under these conditions, 2-chloromandelamide was eluted 7.5 minutes (R-isomer) and 10.1 minutes (S-isomer) after the start of elution.
# The chiral GC method comprises chromatography using GAMMA DEX 225 (SUPELCO; 30 m×0.25 mm×0.25 μm film thickness) under the following conditions: column temperature, 190° C.; injection temperature, 220° C.; detection temperature 220° C.; carrier gas, He/1.0 kg/cm^2. Under the conditions described above, the S-isomer was eluted 27.0 minutes, and the R-isomer was eluted 29.3 minutes after the start of the elution.
# The optical purities of the other α-hydroxyesters were determined by the chiral GC method described below using Chirasil-DEX CB column (Varian; […]×0.25 μm film thickness). GAMMA DEX 225 was used to determine the optical purities of ethyl lactate (injection temperature, 180° C.; column temperature, […]; detection temperature, 180° C.; R-isomer, 6.13 minutes; S-isomer, 6.82 minutes), ethyl 2-hydroxybutyrate (injection temperature, 180° C.; column temperature, 100° C.; detection temperature, 180° C.; R-isomer, 5.88 minutes; S-isomer, 6.32 minutes), ethyl 2-hydroxyvalerate (injection temperature, 180° C.; column temperature, 110° C.; detection temperature, 180° C.; R-isomer, 6.17 minutes; S-isomer, 6.88 minutes), ethyl 2-hydroxy heptanoate (injection temperature, 180° C.; column temperature, 120° C.; detection temperature, 180° C.; R-isomer, 11.20 minutes; S-isomer, 12.00 minutes), and 2-hydroxyisovalerate (injection temperature, 180° C.; column temperature, 90° C.; detection temperature, 180° C.; R-isomer, 10.42 minutes; S-isomer, 10.89 minutes).
row,Molecule,Optical purity (%)
1,NC(=O)C(=O)c1ccccc1Cl [drawing 25],>99
2,CCOC(=O)C(C)=O [drawing 26],>99
3,CCOC(=O)C(=O)CC [drawing 27],>99
4,CCCC(=O)C(=O)OCC [drawing 28],98
5,CCCCCC(=O)C(=O)OCC [drawing 29],>99
6,CCOC(=O)C(=O)C(C)C [drawing 30],>99
7,CCOC(=O)C(=O)c1ccccc1 [drawing 31],97

# Same assay, conditions: purified enzyme (summary)
row,Molecule,purity of (R)-2-chloromandelamide produced [%]
1,NC(=O)C(=O)c1ccccc1Cl [2-chlorobenzoyl formamide],≥ 99

# Test system: not listed separately
# Test: 2-chlorobenzoyl formamide-reducing activity of enzyme preparations
# Format: biochemical
# Conditions: purified enzyme; 1 mM 2-chlorobenzoyl formamide, 0.2 mM NADPH, pH 6.5, 30° C.
# Description: as §1
# Cells of E. coli DH10B strain containing pSE-YDL1 or pSG-YDL1 were grown on LB medium containing ampicillin. Cells were induced with 0.1 mM IPTG for 4 hours, and then the cells were harvested by centrifugation.
# Each sample of cells was suspended in cell lysis buffer (50 mM potassium phosphate buffer (pH 8.0) containing 0.02% 2-mercaptoethanol). The cells were crushed by sonication. Then, the lysates were centrifuged and the resulting supernatants were saved as cell-free extracts.
row,Molecule,specific activity
1,B1,about 105 U/mg

# Same assay, conditions: purified enzyme; 1 mM 2-chlorobenzoyl formamide, 0.2 mM NADPH, pH 6.5, 30° C.; listed as purified enzyme
row,Molecule,specific activity [U/mg]
1,B1,105

# Test system: not listed separately
# Test: pH and temperature dependency and stability of α-ketoamide reductase
# Format: biochemical
# Conditions: 100 mM potassium phosphate buffer (pH 7.0), 30 minutes
# Description: The pH of the reaction solution was altered using 0.1 M sodium acetate buffer (pH 4.0-5.5), potassiumphosphate buffer (pH 5.5-7.5), Tris-hydrochloride buffer (pH 7.5-9.0), and glycine-potassium hydroxide buffer (pH 9.0-10.5) to assess the pH dependency of the 2-chlorobenzoyl formamide-reducing activity of the enzyme obtained in Example 1. The activity at each pH was determined as a relative activity when the maximal activity was taken as 100. The optimal pH (pH range in which the relative activity is 80% or higher) was 5.5-6.5.
# The enzyme obtained in Example 1 was assessed for 2-chlorobenzoyl formamide-reducing activity under standard reaction conditions at various temperatures. The activity at each temperature was determined as a relative activity when the maximal activity was taken as 100. The optimal temperature (temperature range in which the relative activity is 80% or higher) was 35 to 47° C.
# The purified enzyme was incubated in 0.1 M sodium acetate buffer (pH 4.0-5.5), 0.1 M potassium phosphate buffer (pH 6.0-7.5), 0.1 M Tris-hydrochloride buffer (pH 8.0-9.0), or 0.1 M glycine-potassium hydroxide buffer (pH 9.5-10.5) at 37° C. for 10 minutes. Then, the enzymatic activity was determined as a relative activity when the activity before the treatment was taken as 100. The stable pH range (pH range in which the residual activity is 80% or higher) was pH 5.5 to 9.5.
# The purified enzyme was incubated in 100 mM potassium phosphate buffer (pH 7.0) at 20 to 50° C. for 30 minutes. The temperature range in which the enzyme activity is stable (temperature range in which the residual activity is 80% or higher) falls within the range comprising 40° C. and lower temperatures.
row,Molecule,temperature range in which the residual activity is 80% or higher [°C]
1,B1,≤ 40

# Same assay, conditions: 2-chlorobenzoyl formamide-reducing activity
row,Molecule,optimal pH (pH range in which the relative activity is 80% or higher)
1,B1,5.5-6.5

# Same assay, conditions: 37° C. for 10 minutes
row,Molecule,stable pH range (pH range in which the residual activity is 80% or higher)
1,B1,5.5 to 9.5

# Same assay, conditions: standard reaction conditions
row,Molecule,optimal temperature (temperature range in which the relative activity is 80% or higher) [°C]
1,B1,35 to 47
